Among the test systems are NCI/ADR-RES; HCT-116; CAKI-1; OVCAR-8; Malme-3M; RXF 393; PC-3; ACHN; T47D; SF-268; A498; EKVX; 786-0; OVCAR-5; SNB-75; OVCAR-4; UACC-62; IGROV-1; CCRF-CEM; U-251.
Holding throughout (assay): growth of human tumour cells (NCI), 48 h

Consider ten molecules from ChEMBL document CHEMBL1201862, “PubChem BioAssay data set” (2004).

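Five concentrations, 48 hours, 96-well plates. The concentration for 50% growth inhibition is given as GI50.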 The source made the active and inactive calls. No stated cut-off is given here; in the data, active = GI50 up to about 1.1 µM and inactive = higher.

Consider `CC(C)(C)OC(=O)NCCCNC1(c2cc3ccccc3s2)CCCCC1`, for which the GI50 in the experiment with NCI/ADR-RES was 15.2 µM (inactive); in the experiment with HCT-116, 12 µM (inactive); in the experiment with CAKI-1 it was 13.6 µM (inactive); with OVCAR-8, 17.2 µM (inactive); with Malme-3M, 15.9 µM (inactive); with RXF 393, 14.8 µM (inactive). Further, the GI50 with PC-3 was 18.8 µM (inactive); with ACHN, 19.2 µM (inactive); in the experiment on T47D, 16.7 µM (inactive); in the experiment on SF-268, 16.7 µM (inactive); with A498 it was 15.6 µM (inactive); with EKVX, 14 µM (inactive). Also, the GI50 in the experiment with 786-0 was 14.9 µM (inactive); with OVCAR-5, 13.7 µM (inactive); with SNB-75, 15.6 µM (inactive); in the experiment with OVCAR-4, 15.2 µM (inactive); in the experiment on UACC-62 it was 17.4 µM (inactive); with IGROV-1, 16.7 µM (inactive). Also, the GI50 in the experiment with CCRF-CEM is 8.22 µM (inactive); with U-251, 21.3 µM (inactive).
Turning to `O=C([O-])C(O)C(O)C(=O)O.[K+]` (stereo not given) [POTASSIUM HYDROGENTARTRATE], the GI50 in the experiment with NCI/ADR-RES, in the experiment on HCT-116, with CAKI-1, with OVCAR-8, in the experiment on Malme-3M and with RXF 393 was > 100 µM (inactive) in each case. In addition, the GI50 in the experiment with PC-3, in the experiment on ACHN, in the experiment on T47D, with SF-268, in the experiment on A498 and in the experiment on EKVX was > 100 µM (inactive) in each case. Moreover, the GI50 in the experiment with 786-0, in the experiment on OVCAR-5, in the experiment with SNB-75, with OVCAR-4, with UACC-62 and in the experiment on IGROV-1 was > 100 µM (inactive) in each case. Besides, the GI50 with CCRF-CEM and with U-251 was > 100 µM (inactive) each time.
In the case of `CC1=Nc2ccccc2OC(C)=C1/N=N/c1ccc2[nH]c(C)nc2c1`, the GI50 in the experiment with NCI/ADR-RES is > 100 µM (inactive); with HCT-116, > 100 µM (inactive); in the experiment on CAKI-1 it was 47.1 µM (inactive); with OVCAR-8, > 100 µM (inactive); in the experiment on Malme-3M, > 100 µM (inactive); with RXF 393, 56.1 µM (inactive). For the same molecule, the GI50 was > 100 µM (inactive) in the experiment with PC-3; 43.8 µM (inactive) in the experiment with ACHN; 50.9 µM (inactive) with T47D; > 100 µM (inactive) in the experiment on SF-268; 24.4 µM (inactive) in the experiment with A498; > 100 µM (inactive) in the experiment on EKVX. For the same molecule, the GI50 with 786-0 is > 100 µM (inactive); in the experiment with OVCAR-5, > 100 µM (inactive); with SNB-75, 25.1 µM (inactive); in the experiment with OVCAR-4 it was > 100 µM (inactive); in the experiment on UACC-62 it was 83.4 µM (inactive); with IGROV-1, 33.5 µM (inactive). Further, the GI50 in the experiment with CCRF-CEM and with U-251 was > 100 µM (inactive) in each case.
Take `CCCCNc1c(CN)cnc2cc(Cl)ccc12`: the GI50 is 16.2 µM (inactive) in the experiment on NCI/ADR-RES; 15 µM (inactive) in the experiment on HCT-116; 21.1 µM (inactive) in the experiment on CAKI-1; 18.2 µM (inactive) in the experiment with OVCAR-8; 19.2 µM (inactive) in the experiment with Malme-3M; 14.5 µM (inactive) with RXF 393. The GI50 in the experiment on PC-3 is 16.8 µM (inactive); with ACHN, 22.6 µM (inactive); in the experiment on T47D, 19.2 µM (inactive); with SF-268, 23.6 µM (inactive); in the experiment on A498 it was 15.4 µM (inactive); with EKVX it was 3.79 µM (inactive). For the same molecule, the GI50 was 16.7 µM (inactive) with 786-0; 16.6 µM (inactive) in the experiment with OVCAR-5; 19.8 µM (inactive) in the experiment with SNB-75; 16.6 µM (inactive) with OVCAR-4; 15.6 µM (inactive) in the experiment on UACC-62; 14.7 µM (inactive) in the experiment with IGROV-1. In addition, the results for the GI50 in the experiment with CCRF-CEM and with U-251 were 4.7 µM (inactive) and 16.4 µM (inactive), respectively.
Regarding `Nc1nc(SCC(=O)c2ccccc2)nc2nc3c(c(-c4ccccc4)c12)CCCC3`, the GI50 in the experiment with NCI/ADR-RES was 25.6 µM (inactive); in the experiment with HCT-116, 30.5 µM (inactive); with CAKI-1, 15.3 µM (inactive); in the experiment on OVCAR-8 it was 27.2 µM (inactive); in the experiment on Malme-3M it was 52.4 µM (inactive); with RXF 393, 17.7 µM (inactive). For the same molecule, the GI50 is > 10 µM (inactive) in the experiment on PC-3; 56.6 µM (inactive) in the experiment with ACHN; 40.3 µM (inactive) in the experiment with T47D; 18.4 µM (inactive) with SF-268; 19.8 µM (inactive) with A498; 63.4 µM (inactive) with EKVX. Also, the GI50 with 786-0 was 20.6 µM (inactive); with OVCAR-5, 52 µM (inactive); in the experiment with SNB-75, 26.4 µM (inactive); with OVCAR-4 it was 23.4 µM (inactive); in the experiment with UACC-62 it was 23.3 µM (inactive); in the experiment on IGROV-1, > 10 µM (inactive). The GI50 with CCRF-CEM is 74.8 µM (inactive); in the experiment on U-251 it was 32 µM (inactive).
Take `C=CCN(c1cc(OCc2ccccc2)c2[nH]cc(C)c2c1)S(C)(=O)=O`: the GI50 in the experiment on NCI/ADR-RES is 53.1 µM (inactive); in the experiment on HCT-116, 66.4 µM (inactive); in the experiment on CAKI-1, 61.7 µM (inactive); in the experiment with OVCAR-8, 61.9 µM (inactive); with Malme-3M it was 27.5 µM (inactive); with RXF 393 it was 23.1 µM (inactive). The GI50 is 49.4 µM (inactive) in the experiment with PC-3; 37.6 µM (inactive) in the experiment with ACHN; 18.8 µM (inactive) with T47D; 46.7 µM (inactive) in the experiment on SF-268; 29.2 µM (inactive) with A498; 24.2 µM (inactive) with EKVX. Also, the GI50 in the experiment with 786-0 was 33.8 µM (inactive); in the experiment with OVCAR-5, 79.8 µM (inactive); with SNB-75 it was 19.8 µM (inactive); in the experiment with OVCAR-4, 34.4 µM (inactive); in the experiment with UACC-62, 22.8 µM (inactive); with IGROV-1, 88.7 µM (inactive). Further, the GI50 in the experiment with CCRF-CEM was > 100 µM (inactive); with U-251, 46.7 µM (inactive).
As to `CC1(C)OCC(C2OC(On3nnc4ccc(Cl)cc43)C3OC(C)(C)OC23)O1` (stereo not given), the GI50 with NCI/ADR-RES, in the experiment on HCT-116, with CAKI-1, with OVCAR-8, in the experiment on Malme-3M and in the experiment with RXF 393 was > 100 µM (inactive) throughout. In addition, the GI50 with PC-3 was > 100 µM (inactive); in the experiment on ACHN, > 100 µM (inactive); with T47D it was > 100 µM (inactive); in the experiment with SF-268, > 100 µM (inactive); in the experiment on A498 it was 11.7 µM (inactive); in the experiment on EKVX, > 100 µM (inactive). Also, the GI50 with 786-0 was > 100 µM (inactive); in the experiment with OVCAR-5, > 100 µM (inactive); in the experiment on SNB-75 it was 98.9 µM (inactive); in the experiment with OVCAR-4 it was > 100 µM (inactive); in the experiment with UACC-62, > 100 µM (inactive); with IGROV-1 it was > 100 µM (inactive). In addition, the GI50 with CCRF-CEM and in the experiment on U-251 was > 100 µM (inactive) each time.
Consider `COCC(/N=C\N1CCCc2ccccc2[C@@H]1CCCCl)C(C)(C)C` (stereo not given in full), for which the GI50 with NCI/ADR-RES is 0.392 µM (active); in the experiment with HCT-116 it was 1.23 µM (inactive); in the experiment on CAKI-1 it was 1.58 µM (inactive); in the experiment with OVCAR-8 it was 15.5 µM (inactive); in the experiment with Malme-3M it was 0.332 µM (active); in the experiment on RXF 393, 13.1 µM (inactive). Moreover, the GI50 was 0.482 µM (active) with PC-3; 16.9 µM (inactive) in the experiment with ACHN; 21.2 µM (inactive) with T47D; > 100 µM (inactive) in the experiment on SF-268; 13.2 µM (inactive) in the experiment with A498; 17.5 µM (inactive) with EKVX. For the same molecule, the GI50 in the experiment with 786-0 was 7.96 µM (inactive); in the experiment on OVCAR-5 it was 13.6 µM (inactive); with SNB-75, 3.01 µM (inactive); in the experiment on OVCAR-4, 1.97 µM (inactive); in the experiment with UACC-62, 10.3 µM (inactive); in the experiment on IGROV-1, 0.353 µM (active). In addition, the GI50 in the experiment on CCRF-CEM is 0.444 µM (active); with U-251 it was 6.89 µM (inactive).
As for `c1ccc2c(c1)ccn1ccc3c4ccccc4nc-3c21`, the GI50 is 0.33 µM (active) with NCI/ADR-RES; 0.0935 µM (active) in the experiment with HCT-116; 0.417 µM (active) in the experiment with CAKI-1; 0.182 µM (active) with OVCAR-8; 0.644 µM (active) with Malme-3M; 0.439 µM (active) with RXF 393. The GI50 in the experiment with PC-3 is 0.384 µM (active); in the experiment with ACHN, 0.228 µM (active); in the experiment with T47D, 0.71 µM (active); in the experiment on SF-268, 0.536 µM (active); with A498 it was 0.0527 µM (active); in the experiment with EKVX it was 0.214 µM (active). Also, the GI50 in the experiment on 786-0 is 0.178 µM (active); in the experiment on OVCAR-5 it was 0.475 µM (active); with SNB-75, 0.647 µM (active); in the experiment with OVCAR-4, 0.332 µM (active); in the experiment on UACC-62 it was 1.16 µM (inactive); with IGROV-1, 0.394 µM (active). Further, the values for the GI50 in the experiment with CCRF-CEM and in the experiment on U-251 were 0.26 µM (active) and 0.299 µM (active), respectively.
In the case of `COC1/C=C\C=C(/C)C(=O)NC2=CC(=O)C(NCCCl)=C(CC(C)CC(OC)C(O)C(C)/C=C(/C)C1OC(N)=O)C2=O` (stereo not given), the GI50 with NCI/ADR-RES is 10.6 µM (inactive); with HCT-116, 0.0489 µM (active); in the experiment on CAKI-1, 0.33 µM (active); in the experiment on OVCAR-8, 0.115 µM (active); in the experiment with Malme-3M it was 0.0345 µM (active); in the experiment on RXF 393, 0.0174 µM (active). For the same molecule, the GI50 is 0.656 µM (active) with PC-3; 0.281 µM (active) in the experiment with ACHN; 2.36 µM (inactive) with T47D; 0.351 µM (active) in the experiment on SF-268; 0.873 µM (active) in the experiment on A498; 0.592 µM (active) in the experiment with EKVX. Besides, the GI50 is 0.323 µM (active) with 786-0; 0.594 µM (active) in the experiment with OVCAR-5; 0.413 µM (active) in the experiment with SNB-75; 2.54 µM (inactive) with OVCAR-4; 0.0405 µM (active) with UACC-62; 0.499 µM (active) with IGROV-1. Also, the GI50 with CCRF-CEM was 0.0993 µM (active); with U-251, 0.11 µM (active).
